Source: US10053431B2, “Tetrahydro-benzodiazepinones” (priority 2013, dated 2018)
Where a name gives a salt, the structure may show the parent alone. Read-outs that look alike come from different tables or passages of the source.

Key:
[1] = target: BIR2 domain of XIAP (Homo sapiens (Human), UniProt P98170, C202A/C213G); test: TR-FRET assay for BIR2 (inhibition of binding of XIAP BIR2 domain to SMAC-derived Peptide A)
[2] = target: BIR3 domain of XIAP (Homo sapiens (Human), UniProt P98170); test: TR-FRET assay for BIR3 (inhibition of binding of XIAP BIR3 domain to SMAC-derived Peptide A)
[3] = 6x His-tagged BIR2 domain (aa 124-240 of XIAP) 10 nM, Peptide A 20 nM, TR-FRET, read-out: IC50 BIR2
[4] = 6x His-tagged BIR3 domain (aa 241-356 of XIAP) 10 nM, Peptide A 20 nM, TR-FRET

Sequence of BIR2 domain of XIAP (P98170 124-240 with tags or gaps C202A/C213G limits assumed): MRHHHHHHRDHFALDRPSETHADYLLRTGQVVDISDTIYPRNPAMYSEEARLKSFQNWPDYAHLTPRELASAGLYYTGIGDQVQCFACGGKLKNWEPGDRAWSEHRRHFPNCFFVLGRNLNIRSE
Sequence of BIR3 domain of XIAP (P98170 241-356 with tags or gaps limits assumed): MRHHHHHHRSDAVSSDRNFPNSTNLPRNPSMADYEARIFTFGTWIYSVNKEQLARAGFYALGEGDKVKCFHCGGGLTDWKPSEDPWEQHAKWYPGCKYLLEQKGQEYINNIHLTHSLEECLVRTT

IC50 [1, 3] [nM]	IC50 [2, 4] [nM]	SMILES	IC50 ([1]; IC50 BIR2) [nM]	IC50 [2] [nM]
36	53400	CN[C@@H](C)C(=O)N[C@H]1CN(C(=O)c2ccccc2C(C)=O)c2ccccc2N(Cc2c(C)ccc3ccccc23)C1=O [Example 101, (S)—N—[(S)-5-(2-Acetyl-benzoyl)-1-(2-methyl-naphthalen-1-ylmethyl)-2-oxo-2,3,4,5-tetrahydro-1H-benzo[b][1,4]diazepin-3-yl]-2-methylamino-propionamide]		
7.92	25600	CN[C@@H](C)C(=O)N[C@H]1CN(C(=O)c2ccc(C(C)=O)cc2)c2cc(Cl)ccc2N(Cc2c(OC)ccc3c(Br)cccc23)C1=O [Example 125, (S)-N-((S)-5-(4-acetylbenzoyl)-1-((5-bromo-2-methoxynaphthalen-1-yl)methyl)-7-chloro-2-oxo-2,3,4,5-tetrahydro-1H-benzo[b][1,4]diazepin-3-yl)-2-(methylamino)propanamide hydrochloride]		
588	> 54800	CN[C@@H](C)C(=O)N[C@H]1CN(C(=O)OC)c2ccccc2N(Cc2c(C)ccc3ccccc23)C1=O [Example 20, ((S)-3-((S)-2-Methylamino-propionylamino)-5-(2-methyl-naphthalen-1-ylmethyl)-4-oxo-2,3,4,5-tetrahydro-benzo[b][1,4]diazepine-1-carboxylic acid methyl ester hydrochloride]		
11	42500	CN[C@@H](C)C(=O)N[C@H]1CN(C(=O)c2ccc(C(C)=O)cc2)c2ccccc2N(Cc2c(OC)ccc3ccccc23)C1=O [Example 69g]		
6.71	18700	CN[C@@H](C)C(=O)N[C@H]1CN(C(=O)c2ccc(N)cc2)c2cc(Cl)ccc2N(Cc2c(OC)ccc3c(Br)cccc23)C1=O [Example 123, (S)-N-((S)-5-(4-aminobenzoyl)-1-((5-bromo-2-methoxynaphthalen-1-yl)methyl)-7-chloro-2-oxo-2,3,4,5-tetrahydro-1H-benzo[b][1,4]diazepin-3-yl)-2-(methylamino)propanamide hydrochloride]		
520	> 54800	CN[C@@H](C)C(=O)N[C@H]1CN(C(=O)c2ccncc2)c2ccccc2N(Cc2c(C)ccc3ccccc23)C1=O [Example 9, (S)-2-Methylamino-N—[(S)-1-(2-methyl-naphthalen-1-naphthalen-1 ylmethyl)-2-oxo-5-(pyridine-4-carbonyl)-2,3,4,5-tetrahydro-1H-benzo[b][1,4]diazepin-3-yl]-propionamide hydrochloride]		
20	30300	CC(=O)c1ccc(C(=O)N2C[C@H](NC(=O)[C@H](C)N)C(=O)N(Cc3c(OCC(F)(F)F)ccc4ccccc34)c3ccccc32)cc1 [Example 69h]		
18	> 54800	CN[C@@H](C)C(=O)N[C@H]1CN(C(=O)c2ccc(C(F)(F)F)cc2)c2ccccc2N(Cc2c(OC)ccc3cc(Br)ccc23)C1=O [Example 91d]		
49	50300	CN[C@@H](C)C(=O)N[C@H]1CN(C(=O)c2ccc(C(C)=O)cc2)c2ccccc2N(Cc2noc3cc(Br)ccc23)C1=O [Example 69e]		
34.7	36900	CN[C@@H](C)C(=O)N[C@H]1CN(C(=O)c2ccc(C#N)cc2)c2cc(Cl)ccc2N(Cc2c(OC(F)F)ccc3ccccc23)C1=O [Example 139, (S)-N-((S)-7-chloro-5-(4-cyanobenzoyl)-1-((2-(difluoromethoxy)naphthalen-1-yl)methyl)-2-oxo-2,3,4,5-tetrahydro-1H-benzo[b][1,4]diazepin-3-yl)-2-(methylamino)propanamide hydrochloride]		

Further lines, the compound ahead of its results:

SMILES	IC50 [1, 3] [nM]	IC50 [2, 4] [nM]	IC50 ([1]; IC50 BIR2) [nM]	IC50 [2] [nM]
CN[C@@H](C)C(=O)N[C@H]1CN(C(=O)CCNC(=O)OCC2c3ccccc3-c3ccccc32)c2ccccc2N(Cc2c(OC)ccc3cc(C(=O)OC)ccc23)C1=O [Example 13r]	17	46700		
CN[C@@H](C)C(=O)N[C@H]1CN(C(C)=O)c2cc(C(F)(F)F)ccc2N(Cc2nn(-c3ccccc3C#N)c3ccccc23)C1=O [Example 177, (S)-N-((S)-5-acetyl-1-((1-(2-cyanophenyl)-1H-indazol-3-yl)methyl)-2-oxo-7-(trifluoromethyl)-2,3,4,5-tetrahydro-1H-benzo[b][1,4]diazepin-3-yl)-2-(methylamino)propanamide hydrochloride]	35.3	> 54800		
CN[C@@H](C)C(=O)N[C@H]1CN(C(=O)CS(C)(=O)=O)c2cc(C#N)ccc2N(Cc2c(OC)ccc3c(Br)cccc23)C1=O [Example 160, (S)-N-((S)-1-((5-bromo-2-methoxynaphthalen-1-yl)methyl)-7-cyano-5-(2-(methylsulfonyl)acetyl)-2-oxo-2,3,4,5-tetrahydro-1H-benzo[b][1,4]diazepin-3-yl)-2-(methylamino)propanamide hydrochloride]	16.1	> 54800		
CC[C@H](N)C(=O)NC1C(=O)N(Cc2c(OC)ccc3c(Br)cccc23)c2ccccc2N(c2ccccc2)C1=O (stereo partly drawn) [Example 137, (2S)-2-amino-N-(1-((5-bromo-2-methoxynaphthalen-1-yl)methyl)-2,4-dioxo-5-phenyl-2,3,4,5-tetrahydro-1H-benzo[b][1,4]diazepin-3-yl)butanamide]		> 54800	29.8	
CCN[C@@H](C)C(=O)N[C@H]1CN(C(=O)c2ccc(C(C)=O)cc2)c2ccccc2N(Cc2c(OC)ccc3cc(Br)ccc23)C1=O [Example 80, (S)—N—((S)-5-(4-Acetylbenzoyl)-1-((6-bromo-2-methoxynaphthalen-1-yl)methyl)-2-oxo-2,3,4,5-tetrahydro-1H-benzo[b][1,4]diazepin-3-yl)-2-(ethylamino)propanamide hydrochloride]	14			> 54800
COc1ccc2c(CN3C(=O)[C@@H](NC(=O)[C@H](C)N)CN(C(=O)c4ccc(C(C)=O)cc4)c4ccccc43)cc(=O)oc2c1 [Example 69j]	213	> 54800		
CN[C@@H](C)C(=O)N[C@H]1CN(C(=O)CS(C)(=O)=O)c2ccc(C#N)cc2N(Cc2c(C)ccc3ccccc23)C1=O [Example 172, (S)-N-((S)-8-cyano-1-((2-methylnaphthalen-1-yl)methyl)-5-(2-(methylsulfonyl)acetyl)-2-oxo-2,3,4,5-tetrahydro-1H-benzo[b][1,4]diazepin-3-yl)-2-(methylamino)propanamide hydrochloride]	94.7	> 54800		
CN[C@@H](C)C(=O)N[C@H]1CN(C(=O)c2ccc(C(C)=O)cc2)c2ccccc2N(CCc2cccc3ccccc23)C1=O [Example 40, (S)—N—((S)-5-(4-acetylbenzoyl)-1-(2-(naphthalen-1-yl)ethyl)-2-oxo-2,3,4,5-tetrahydro-1H-benzo[b][1,4]diazepin-3-yl)-2-(methylamino)propanamide]	173	7420		
CN[C@@H](C)C(=O)N[C@H]1CN(C(=O)CS(C)(=O)=O)c2ccccc2N(Cc2c(OC(F)F)ccc3ccccc23)C1=O [Example 83, (S)—N—((S)-1-((2-(Difluoromethoxy)naphthalen-1-yl)methyl)-5-(2-(methylsulfonyl)acetyl)-2-oxo-2,3,4,5-tetrahydro-1H-benzo[b][1,4]diazepin-3-yl)-2-(methylamino)propanamide hydrochloride]	121	> 54800		
CN[C@@H](C)C(=O)N[C@H]1CN(C(=O)Cc2cccnc2)c2ccccc2N(Cc2c(OC)ccc3c(Br)cccc23)C1=O [Example 88, (S)—N—((S)-1-((5-bromo-2-methoxynaphthalen-1-yl)methyl)-2-oxo-5-(2-(pyridin-3-yl)acetyl)-2,3,4,5-tetrahydro-1H-benzo[b][1,4]diazepin-3-yl)-2-(methylamino)propanamide hydrochloride]	14	39900		
CN[C@@H](C)C(=O)N[C@H]1CN(C(=O)CCCNC(=O)OCC2c3ccccc3-c3ccccc32)c2ccccc2N(Cc2c(OC)ccc3cc(C(=O)OC)ccc23)C1=O [Example 48, 5-[(S)-5-[4-(9H-Fluoren-9-ylmethoxycarbonylamino)-butyryl]-3-((S)-2-methylamino-propionylamino)-2-oxo-2,3,4,5-tetrahydro-benzo[b][1,4]diazepin-1-ylmethyl]-6-methoxy-naphthalene-2-carboxylic acid methyl ester hydrochloride]	23	33200		
CN[C@@H](C)C(=O)N[C@H]1CN(Cc2ccc(C#N)cc2)c2ccccc2N(Cc2c(OC)ccc3cc(Br)ccc23)C1=O [Example 78, (S)—N—((S)-1-((6-Bromo-2-methoxynaphthalen-1-yl)methyl)-5-(4-cyanobenzyl)-2-oxo-2,3,4,5-tetrahydro-1H-benzo[b][1,4]diazepin-3-yl)-2-(methylamino)propanamide trifluoroacetate]	30	17100		
CN[C@@H](C)C(=O)N[C@H]1CN(C(=O)CS(C)(=O)=O)c2ccccc2N(Cc2c(OC)ccc3ccccc23)C1=O [Example 82, (S)—N—((S)-1-((2-Methoxynaphthalen-1-yl)methyl)-5-(2-(methylsulfonyl)acetyl)-2-oxo-2,3,4,5-tetrahydro-1H-benzo[b][1,4]diazepin-3-yl)-2-(methylamino)propanamide hydrochloride]	29	> 54800		
CN[C@@H](C)C(=O)N[C@H]1CN(C(=O)CS(C)(=O)=O)c2cc(C#N)ccc2N(Cc2nn(-c3ccccc3C#N)c3ccccc23)C1=O [Example 161, (2S)-N-[(3S)-7-cyano-1-[[1-(2-cyanophenyl)indazol-3-yl]methyl]-5-(2-methylsulfonylacetyl)-2-oxo-3,4-dihydro-1,5-benzodiazepin-3-yl]-2-(methylamino)propanamide;2,2,2-trifluoroacetic acid]	53.9	> 54800		
CN[C@@H](C)C(=O)N[C@H]1CN(C(=O)CCCCC(=O)O)c2ccccc2N(Cc2c(C)ccc3ccccc23)C1=O [Example 60, 6-((S)-3-((S)-2-(methylamino)propanamido)-5-((2-methylnaphthalen-1-yl)methyl)-4-oxo-2,3,4,5-tetrahydro-1H-benzo[b][1,4]diazepin-1-yl)-6-oxohexanoic acid hydrochloride]	166	> 54800		
